In patent US20050112573A1, “Method of detecting toxic substance” (priority 2001, published 2005):

System: yeast genes (level of expressed mRNA)
Test: DNA chip analysis of expressed mRNA of yeast genes after 2 h culture with a toxic chemical substance
Type: cell-based, Saccharomyces cerevisiae S288C
Conditions: for The level of expressed mRNA in the presence of chemical substance/ (ratio to absence of chemical substance): stress protein genes, DNA chip
Experimental: Yeast (Saccharomyces cerevtisiae S288C (α SUC2mal mel gap2 CUP1)) were cultured at 25° C. on YPD medium (yeast extract 1%, polypepton 2%, glucose 2%). One of toxic chemical substances was added to the cell at logarithmic growth phase, and the cell was further cultured for two hours. Cell was cultured without any chemical substance in the same condition, and was used as control. Concentrations of the chemical substances were defined to inhibit the growth of the yeast but not lead to death.
After the completion of cultivation, the culture was centrifuged to collect the cells. To the cells, sodium acetate buffer (50 mM sodium acetate, 10 mM EDTA, 1% SDS) was added, and the mixture was shaken at 65° C. for five minutes, followed by returning to room temperature, and obtaining the supernatant, which procedure was repeated two times. To the supernatant, ½ amount of a solution of phenol/chloroform was added, and the mixture was centrifuged to give a supernatant, which was added with an equal amount of chloroform, and the mixture was centrifuged to give a supernatant. To the supernatant, an equal amount of isopropanol containing 0.3 M sodium acetate was added, and the mixture was allowed to stand at room temperature for 30 minutes, after which the mixture was centrifuged to give a sediment of the whole RNAs. Seventy % ethanol was added to the sediment, and the mixture was again centrifuged to give a sediment, which was then dried and dissolved in water. mRNA was isolated from the whole RNAs as followings. In view of the fact that a poly A chain is attached to the 3′ terminus of mRNA, a polynucleotide having a poly T structure which was immobilized on the surface of latex beads was used to trap the mRNA, and then the mRNA was washed and eluted with spine column (Oligotex-dT30<Super>mRNA Purification Kit, Takara). Reverse transcription of the mRNA was conducted with a reverse transcriptase (Super Script II Reverse Transcriptase; catalogue No. 18064-014, GibcoBRL) using fluorescence-labeled nucleotides to give cDNAs that were introduced with Cy3-dUTP or Cy5-dUTP during the reverse transcription.
The labeled cDNAs were dissolved in TE buffer (10 mM Tris-HCl/1 mM EDTA, pH8.0), and the solution was dropped on the DNA chip containing the whole genes of yeast (DNA Chip Research Inc. Japan) so that the cDNAs were hybridized on the DNA chip at 65° C. for over 12 hours. The fluoresces intensity of the DNA chip was read with a scanner, and the ratio relative to the fluorescence intensity resulting from the absence of chemical substance was estimated as the following, which is shown in Tables 1 to 9: [formula]
In the Tables, “Intensity” indicated in the rightmost column is a value of the level of expressed mRNA of each gene in control cells as divided by the average level of the expressions of the whole genes.

CCCCCCCCCCCCOS(=O)(=O)[O-].[Na+] [(18), sodium lauryl sulfate]
The level of expressed mRNA in the presence of chemical substance/The level of expressed mRNA in the absence of chemical substance (yeast gene YIL140W): 1.0 | The level of expressed mRNA in the presence of chemical substance/ (in its absence), gene YJL070C (yeast gene YJL070C, ratio of DNA chip fluorescence intensity to that without chemical substance): 1.2 | The level of expressed mRNA in the presence of chemical substance/The level of expressed mRNA in the absence of chemical substance (yeast gene YJL073W): 1.0 | The level of expressed mRNA in the presence of chemical substance/The level of expressed mRNA in the absence of chemical substance (yeast gene YJL089W): 1.1 | The level of expressed mRNA in the presence of chemical substance/ (ratio to absence), gene YJL096W (yeast gene YJL096W, mitochondria-located protein genes, 2 h culture with chemical): 1.2 | The level of expressed mRNA in the presence of chemical substance/The level of expressed mRNA in the absence of chemical substance (yeast gene YJL116C): 0.7 | The level of expressed mRNA in the presence of chemical substance/ (ratio to absence of chemical substance) (yeast gene YJL158C): 1.4 | The level of expressed mRNA in the presence of chemical substance/ (in its absence), gene YJL167W (yeast gene YJL167W, ratio of DNA chip fluorescence intensity to that without chemical substance): 2.1 | The level of expressed mRNA in the presence of chemical substance/ (ratio to absence), gene YJL180C (yeast gene YJL180C, mitochondria-located protein genes, 2 h culture with chemical): 1.4 | The level of expressed mRNA in the presence of chemical substance/ (in its absence), gene YJL216C (yeast gene YJL216C, ratio of DNA chip fluorescence intensity to that without chemical substance): 2.0 | The level of expressed mRNA in the presence of chemical substance/The level of expressed mRNA in the absence of chemical substance (yeast gene YJR004C): 0.4 | The level of expressed mRNA in the presence of chemical substance/The level of expressed mRNA in the absence of chemical substance (yeast gene YJR086W): 1.6 | The level of expressed mRNA in the presence of chemical substance/ (ratio to absence of chemical substance) (yeast gene YJR090C): 1.0 | The level of expressed mRNA in the presence of chemical substance/The level of expressed mRNA in the absence of chemical substance (yeast gene YKL008C): 1.9 | The level of expressed mRNA in the presence of chemical substance/The level of expressed mRNA in the absence of chemical substance (yeast gene YKL013C): 1.7 | The level of expressed mRNA in the presence of chemical substance/The level of expressed mRNA in the absence of chemical substance (yeast gene YKL039W): 1.3 | The level of expressed mRNA in the presence of chemical substance/The level of expressed mRNA in the absence of chemical substance (yeast gene YKL041W): 1.3 | The level of expressed mRNA in the presence of chemical substance/The level of expressed mRNA in the absence of chemical substance (yeast gene YKL096W): 0.7 | The level of expressed mRNA in the presence of chemical substance/ (ratio to absence of chemical substance) (yeast gene YKL164C): 0.8 | The level of expressed mRNA in the presence of chemical substance/The level of expressed mRNA in the absence of chemical substance (yeast gene YKL165C): 1.0 | The level of expressed mRNA in the presence of chemical substance/The level of expressed mRNA in the absence of chemical substance (yeast gene YKL193C): 2.3 | The level of expressed mRNA in the presence of chemical substance/ (in its absence), gene YKR009C (yeast gene YKR009C, ratio of DNA chip fluorescence intensity to that without chemical substance): 2.5 | The level of expressed mRNA in the presence of chemical substance/ (in its absence), gene YKR034W (yeast gene YKR034W, ratio of DNA chip fluorescence intensity to that without chemical substance): 1.0 | The level of expressed mRNA in the presence of chemical substance/ (ratio to absence of chemical substance) (yeast gene YKR053C): 2.4 | The level of expressed mRNA in the presence of chemical substance/ in its absence, gene YKR058W (yeast gene YKR058W, energy system protein genes, 2 h culture with the chemical, ratio to control without chemical): 1.6 | The level of expressed mRNA in the presence of chemical substance/ (in its absence), gene YLR006C (yeast gene YLR006C, ratio of DNA chip fluorescence intensity to that without chemical substance): 1.0 | The level of expressed mRNA in the presence of chemical substance/ (ratio to absence of chemical substance) (yeast gene YLR006C): 1.0 | The level of expressed mRNA in the presence of chemical substance/The level of expressed mRNA in the absence of chemical substance (yeast gene YLR120C): 2.9 | The level of expressed mRNA in the presence of chemical substance/The level of expressed mRNA in the absence of chemical substance (yeast gene YLR136C): 1.4 | The level of expressed mRNA in the presence of chemical substance/The level of expressed mRNA in the absence of chemical substance (yeast gene YLR178C): 3.6 | The level of expressed mRNA in the presence of chemical substance/The level of expressed mRNA in the absence of chemical substance (yeast gene YLR250W): 2.2 | The level of expressed mRNA in the presence of chemical substance/ in its absence, gene YLR295C (yeast gene YLR295C, energy system protein genes, 2 h culture with the chemical, ratio to control without chemical): 1.5 | The level of expressed mRNA in the presence of chemical substance/ (ratio to absence), gene YLR295C (yeast gene YLR295C, mitochondria-located protein genes, 2 h culture with chemical): 1.5 | The level of expressed mRNA in the presence of chemical substance/The level of expressed mRNA in the absence of chemical substance (yeast gene YLR327C): 5.3 | The level of expressed mRNA in the presence of chemical substance/ (in its absence), gene YLR351C (yeast gene YLR351C, ratio of DNA chip fluorescence intensity to that without chemical substance): 1.8 | The level of expressed mRNA in the presence of chemical substance/The level of expressed mRNA in the absence of chemical substance (yeast gene YLR356W): 1.0 | The level of expressed mRNA in the presence of chemical substance/The level of expressed mRNA in the absence of chemical substance (yeast gene YLR362W): 1.3 | The level of expressed mRNA in the presence of chemical substance/ (in its absence), gene YLR375W (yeast gene YLR375W, ratio of DNA chip fluorescence intensity to that without chemical substance): 1.0 | The level of expressed mRNA in the presence of chemical substance/The level of expressed mRNA in the absence of chemical substance (yeast gene YLR391W): 0.9 | The level of expressed mRNA in the presence of chemical substance/The level of expressed mRNA in the absence of chemical substance (yeast gene YLR429W): 0.9 | The level of expressed mRNA in the presence of chemical substance/ in its absence, gene YML129C (yeast gene YML129C, energy system protein genes, 2 h culture with the chemical, ratio to control without chemical): 1.3 | The level of expressed mRNA in the presence of chemical substance/ (ratio to absence), gene YML129C (yeast gene YML129C, mitochondria-located protein genes, 2 h culture with chemical): 1.3 | The level of expressed mRNA in the presence of chemical substance/The level of expressed mRNA in the absence of chemical substance (yeast gene YMR004W): 1.3 | The level of expressed mRNA in the presence of chemical substance/ (ratio to absence), gene YMR023C (yeast gene YMR023C, mitochondria-located protein genes, 2 h culture with chemical): 1.4 | The level of expressed mRNA in the presence of chemical substance/The level of expressed mRNA in the absence of chemical substance (yeast gene YMR094W): 1.0 | The level of expressed mRNA in the presence of chemical substance/The level of expressed mRNA in the absence of chemical substance (yeast gene YMR104C): 1.9 | The level of expressed mRNA in the presence of chemical substance/ (ratio to absence of chemical substance) (yeast gene YMR186W): 1.1 | The level of expressed mRNA in the presence of chemical substance/The level of expressed mRNA in the absence of chemical substance (yeast gene YMR219W): 0.9 | The level of expressed mRNA in the presence of chemical substance/The level of expressed mRNA in the absence of chemical substance (yeast gene YMR226C): 2.0 | The level of expressed mRNA in the presence of chemical substance/ in its absence, gene YMR267W (yeast gene YMR267W, energy system protein genes, 2 h culture with the chemical, ratio to control without chemical): 1.3 | The level of expressed mRNA in the presence of chemical substance/ (ratio to absence), gene YMR267W (yeast gene YMR267W, mitochondria-located protein genes, 2 h culture with chemical): 1.3 | The level of expressed mRNA in the presence of chemical substance/ in its absence, gene YMR267W (yeast gene YMR267W, ratio of DNA chip fluorescence intensity to that without chemical substance): 1.3 | The level of expressed mRNA in the presence of chemical substance/The level of expressed mRNA in the absence of chemical substance (yeast gene YMR275C): 0.7 | The level of expressed mRNA in the presence of chemical substance/The level of expressed mRNA in the absence of chemical substance (yeast gene YMR276W): 0.7 | The level of expressed mRNA in the presence of chemical substance/ (in its absence), gene YMR278W (yeast gene YMR278W, ratio of DNA chip fluorescence intensity to that without chemical substance): 1.5 | The level of expressed mRNA in the presence of chemical substance/ (in its absence), gene YMR293C (yeast gene YMR293C, ratio of DNA chip fluorescence intensity to that without chemical substance): 1.0 | The level of expressed mRNA in the presence of chemical substance/The level of expressed mRNA in the absence of chemical substance (yeast gene YMR314W): 1.6
